Assays:
[1] = molecular target: T1, hCAII (Homo sapiens, UniProt P00918); test: hCAII activity assay; assay type: biochemical
[2] = system: matrix metalloproteinases; details: cited from earlier work
[3] = molecular target: T1, hCAII; details: aliphatic thiols; cited from earlier work

## Cc1cc(C)n(O)c(=S)c1 [4,6-CH3-1,2-HOPTO]
[1]; against hCAII
  fold decrease in potency/affinity relative to 4-CH3-1,2-HOPTO: > 20 fold

## On1c(C(F)(F)F)cccc1=S [6-CF3-1,2-HOPTO]
[1]
  inhibition of hCAII (in words): all activity is lost

## [O-][n+]1ccccc1S [1,2-HOPTO, 1-hydroxypyridine-2-(1H)-thione]
[2]
  fold more potent than 1,2-HOPO: ~50 fold
[1]; against hCAII
  fold more potent than 1,2-HOPO: ~50 fold

## Cc1cccc(=S)n1O [6-CH3-1,2-HOPTO]
[1]; against hCAII
  fold decrease in potency relative to 1,2-HOPTO: 5 fold

## OCCS [2-mercaptoethanol]
[3]
  inhibitory activity against hCAII (in words): lack inhibitory activity

## Cc1ccnc(S)c1 [4-CH3-2MPyr, 2-Mercapto-4-methylpyridine]
[1]; against hCAII
  fold decrease in potency/affinity relative to 4-CH3-1,2-HOPTO: ~200 fold

## Cc1cccn(O)c1=S [3-CH3-1,2-HOPTO]
[1]; against hCAII
  fold increase in potency over unsubstituted 1,2-HOPTO: > 10 fold
